What was measured:
[1] = tested on: STAM mouse model for NASH; assay: NAFLD Activity Score by HE staining, STAM mouse NASH model (Example 1); type: in vivo; conditions: for Steatosis score 0, number of mice: score 0 = <5%; for Steatosis score 0, number of mice / Hepatocyte ballooning score 0, number of mice / Steatosis score 1, number of mice / Lobular inflammation score 1, number of mice / Hepatocyte ballooning score 1, number of mice / Lobular inflammation score 2, number of mice / Lobular inflammation score 3, number of mice / NAS (mean ± SD): 7 to 9 weeks of age; for Hepatocyte ballooning score 0, number of mice: score 0 = None; for Steatosis score 1, number of mice: score 1 = 5-33%; for Lobular inflammation score 1, number of mice: score 1 = <2 foci/200x; for Hepatocyte ballooning score 1, number of mice: score 1 = Few balloon cells; for Lobular inflammation score 2, number of mice: score 2 = 2-4 foci/200x; for Lobular inflammation score 3, number of mice: score 3 = >4 foci/200x
Description: The STAM™ mouse is a model for NASH created by a combination of chemical and dietary interventions in C57BL/6 mice that manifest NASH at about 8 weeks, which progresses to fibrosis at about 12 weeks and then progresses to HCC at about 16 weeks. See, Saito et al., Sci. Rep. 2015, 5:12466.
In the study, the control groups were as follows: (i) Untreated Disease Control—a group of STAM mice injected with streptozotocin (STZ, Sigma-Aldrich, USA) at 2 days old, and fed a high fat diet (HFD, 57 kcal % fat, Cat #HFD32, CLEA Japan, Japan) starting at 4 weeks old; and (ii) Positive Control—a group of STAM mice treated with telmisartan (10 mg/kg QD from 7 to 9 weeks). In addition to these control groups, test groups of STAM mice treated with a low dose of ubenimex (5 mg/kg ubenimex BID from 7 to 9 weeks) or a high dose of ubenimex (25 mg/kg BID from 7 to 9 weeks), were included in the study. The low dose is equivalent to a human dose of 30 mg BID. The high dose is equivalent to a human dose of 150 mg BID. The viability, clinical signs and behavior were monitored daily, including body weight, signs of toxicity, moribundity and mortality. The mice were maintained in a SPF facility under controlled conditions of temperature (23±2° C.), humidity (45±10%), lighting (12-hour artificial light and dark cycles; light from 8:00 to 20:00) and air exchange. A high pressure was maintained in the experimental room to prevent contamination of the facility. The mice were housed in TPX cages (CLEA Japan) with a maximum of 4 mice per case.
All groups of mice were sacrificed at 9 weeks. Once sacrificed, the body weight of each mouse was recorded. The liver of each mouse was removed and weighed. The liver-to-body weight ratio was determined for each mouse. Blood serum levels of CK-18, ALT, and liver triglycerides were determined for each mouse. The livers were then sectioned and stained with hematoxylin and eosin (“HE”) stain, as well as Sirius red staining, to determine liver steatosis (ballooning) and fibrosis, respectively.

[2] = tested on: STAM model of NASH fibrosis; assay: NAFLD Activity Score by HE staining, STAM model of NASH with fibrosis (Example 3); type: in vivo, mouse; conditions: for Steatosis score 0, number of mice: score 0 = <5%; for Hepatocyte ballooning score 0, number of mice: score 0 = None; for Steatosis score 1, number of mice: score 1 = 5-33%; for Hepatocyte ballooning score 1, number of mice: score 1 = Few balloon cells; for Lobular inflammation score 2, number of mice: score 2 = 2-4 foci/200x; for Steatosis score 2, number of mice: score 2 = >33-66%; for Hepatocyte ballooning score 2, number of mice: score 2 = Many cells/prominent ballooning; for Lobular inflammation score 3, number of mice: score 3 = >4 foci/200x
Method: Ubenimex or telmisartan was administered orally in a volume at 10 mL/kg. Ubenimex was administered at a dose of 5 mg/kg once daily or twice daily. Telmisartan was administered at a dose of 5 mg/kg once daily.
For HE staining, sections were cut from paraffin blocks of liver tissue prefixed in Bouin's solution and stained with Lillie-Mayer's hematoxylin (Muto Pure Chemicals Co., Ltd., Japan) and eosin solution (Wako Pure Chemical Industries, Ltd., Japan). NAFLD Activity Score (NAS) was calculated according to the criteria of Kleiner (Kleiner et al., Hepatology, 2005, 41:1313). To visualize collagen deposition, Bouin's fixed liver sections were stained using picro-Sirius red solution (Waldeck, Germany). For quantitative analysis of fibrosis area, bright field images of Sirius red-staining sections were captured around the central vein using a digital camera (DFC295; Leica, Germany) at 200-fold magnification, and the positive areas in 5 fields/section were measured using ImageJ software (National Institutes of Health, USA).
Statistical tests: Statistical analyses were performed using Bonferroni Multiple Comparison Test on GraphPad Prism 6 (GraphPad Software Inc., USA). P values <0.05 were considered statistically significant. A trend or tendency was assumed when a one-tailed t-test returned P values <0.1. Results were expressed as mean±SD.
Study groups: The following study groups were used. Group 1 (Vehicle): 8 NASH mice were orally administered vehicle (RO water) in a volume of 10 mL/kg twice daily from 6 to 11 weeks of age. Group 2 (Ubenimex QD for 5 weeks): 8 NASH mice were orally administered vehicle supplemented with ubenimex at a dose of 5 mg/kg once daily from 6 to 11 weeks of age. Group 3 (Ubenimex BID for 5 weeks): 8 NASH mice were orally administered vehicle supplemented with ubenimex at a dose of 5 mg/kg twice daily from 6 to 11 weeks of age. Group 4 (Ubenimex BID for 2 weeks): 8 NASH mice were orally administered vehicle supplemented with ubenimex at a dose of 5 mg/kg twice daily from 9 to 11 weeks of age. Group 5 (Telmisartan for 5 weeks): 8 NASH mice were orally administered pure water supplemented with telmisartan at a dose of 5 mg/kg once daily from 6 to 11 weeks of age.

[3] = ubenimex 5 mg/kg BID oral, 6 to 11 weeks of age
[4] = ubenimex 5 mg/kg BID oral, 9 to 11 weeks of age
[5] = ubenimex 5 mg/kg QD oral, 6 to 11 weeks of age
[6] = telmisartan 5 mg/kg QD oral, 6 to 11 weeks of age

SMILES: CC(C)C[C@H](NC(=O)[C@@H](O)[C@H](N)Cc1ccccc1)C(=O)O [Ubenimex, (2S)-2-[[(2S,3R)-3-amino-2-hydroxy-4-phenylbutanoyl]amino]-4-methylpentanoic acid]
- Hepatocyte ballooning compared with the control group ([1]; high and low dose ubenimex groups (25 and 5 mg/kg BID, 7 to 9 weeks)): significantly decreased
- Steatosis score 0, number of mice ([1]; ubenimex 5 mg/kg BID): 1
- Hepatocyte ballooning score 0, number of mice ([1]; ubenimex 5 mg/kg BID): 4
- Hepatocyte ballooning score 0, number of mice ([1]; ubenimex 25 mg/kg BID): 5
- Steatosis score 1, number of mice ([1]; ubenimex 5 mg/kg BID): 5
- Steatosis score 1, number of mice ([1]; ubenimex 25 mg/kg BID): 7
- Lobular inflammation score 1, number of mice ([1]; ubenimex 5 mg/kg BID): 1
- Hepatocyte ballooning score 1, number of mice ([1]; ubenimex 5 mg/kg BID): 2
- Hepatocyte ballooning score 1, number of mice ([1]; ubenimex 25 mg/kg BID): 2
- Lobular inflammation score 2, number of mice ([1]; ubenimex 5 mg/kg BID): 3
- Lobular inflammation score 2, number of mice ([1]; ubenimex 25 mg/kg BID): 5
- Lobular inflammation score 3, number of mice ([1]; ubenimex 5 mg/kg BID): 2
- Lobular inflammation score 3, number of mice ([1]; ubenimex 25 mg/kg BID): 2
- NAS (mean ± SD) ([1]; ubenimex 5 mg/kg BID): 3.3 ± 0.5
- NAS (mean ± SD) ([1]; ubenimex 25 mg/kg BID): 3.6 ± 0.5
- Steatosis score 0, number of mice [2, 3]: 1
- Steatosis score 0, number of mice [2, 4]: 1
- Hepatocyte ballooning score 0, number of mice [2, 3]: 5
- Hepatocyte ballooning score 0, number of mice [2, 4]: 4
- Hepatocyte ballooning score 0, number of mice [2, 5]: 2
- Steatosis score 1, number of mice [2, 3]: 4
- Steatosis score 1, number of mice [2, 4]: 4
- Steatosis score 1, number of mice [2, 5]: 6
- Lobular inflammation score 1, number of mice ([2]; score 1 = <2 foci/200x, ubenimex 5 mg/kg QD oral, 6 to 11 weeks of age): 1
- Hepatocyte ballooning score 1, number of mice [2, 4]: 1
- Hepatocyte ballooning score 1, number of mice [2, 5]: 4
- Lobular inflammation score 2, number of mice [2, 3]: 2
- Lobular inflammation score 2, number of mice [2, 4]: 4
- Lobular inflammation score 2, number of mice [2, 5]: 3
- Steatosis score 2, number of mice [2, 3]: 1
- Steatosis score 2, number of mice [2, 4]: 1
- Hepatocyte ballooning score 2, number of mice [2, 3]: 1
- Hepatocyte ballooning score 2, number of mice [2, 4]: 1
- Lobular inflammation score 3, number of mice [2, 3]: 4
- Lobular inflammation score 3, number of mice [2, 4]: 2
- Lobular inflammation score 3, number of mice [2, 5]: 2
- NAS (mean ± SD) [2, 3]: 4.0 ± 1.7
- NAS (mean ± SD) [2, 4]: 3.8 ± 1.0
- NAS (mean ± SD) [2, 5]: 3.8 ± 0.8

SMILES: CCCc1nc2c(C)cc(-c3nc4ccccc4n3C)cc2n1Cc1ccc(-c2ccccc2C(=O)O)cc1 [Telmisartan, telmisartan]
- Steatosis score 0, number of mice ([1]; telmisartan 10 mg/kg QD): 3
- Hepatocyte ballooning score 0, number of mice ([1]; telmisartan 10 mg/kg QD): 8
- Steatosis score 1, number of mice ([1]; telmisartan 10 mg/kg QD): 5
- Lobular inflammation score 1, number of mice ([1]; telmisartan 10 mg/kg QD): 2
- Lobular inflammation score 2, number of mice ([1]; telmisartan 10 mg/kg QD): 4
- Lobular inflammation score 3, number of mice ([1]; telmisartan 10 mg/kg QD): 2
- NAS (mean ± SD) ([1]; telmisartan 10 mg/kg QD): 2.6 + 0.9
- Steatosis score 0, number of mice [2, 6]: 1
- Lobular inflammation score 0, number of mice ([2]; score 0 = No foci, telmisartan 5 mg/kg QD oral, 6 to 11 weeks of age): 1
- Hepatocyte ballooning score 0, number of mice [2, 6]: 3
- Steatosis score 1, number of mice [2, 6]: 5
- Hepatocyte ballooning score 1, number of mice [2, 6]: 3
- Lobular inflammation score 2, number of mice [2, 6]: 3
- Lobular inflammation score 3, number of mice [2, 6]: 2
- NAS (mean ± SD) [2, 6]: 3.3 ± 1.0
